# Laboratory results as given in US12692254B2, “Benzimidazole inhibitors of PAD enzymes” (BRISTOL-MYERS SQUIBB COMPANY, priority 2018, dated 2026).
# Target: human PAD4 (hPAD4) (Homo sapiens, UniProt Q9UM07)
# Test: RFMS human PAD4 functional assay (rapid-fire mass spectrum)
# Format: biochemical
# Details: 5 nM hPAD4 enzyme, 250 μM BAEE, 50 μM Calcium; 30 min preincubation, 90 min reaction at 37° C.
# Method in brief: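 PAD4 (10 nM) preincubated 30 min with compound (top final 50 μM), then BAEE substrate added in pH 7.5 HEPES buffer with DTT, 50 μM calcium, TPEN; 90 min at 37° C. After TCA quench, citrulline derivatized with phenyl glyoxal (4 mM final, 30 min, 37° C) and quantified by RapidFire MS against internal standard.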
# Sequence of human PAD4 (hPAD4) (Q9UM07 whole entry): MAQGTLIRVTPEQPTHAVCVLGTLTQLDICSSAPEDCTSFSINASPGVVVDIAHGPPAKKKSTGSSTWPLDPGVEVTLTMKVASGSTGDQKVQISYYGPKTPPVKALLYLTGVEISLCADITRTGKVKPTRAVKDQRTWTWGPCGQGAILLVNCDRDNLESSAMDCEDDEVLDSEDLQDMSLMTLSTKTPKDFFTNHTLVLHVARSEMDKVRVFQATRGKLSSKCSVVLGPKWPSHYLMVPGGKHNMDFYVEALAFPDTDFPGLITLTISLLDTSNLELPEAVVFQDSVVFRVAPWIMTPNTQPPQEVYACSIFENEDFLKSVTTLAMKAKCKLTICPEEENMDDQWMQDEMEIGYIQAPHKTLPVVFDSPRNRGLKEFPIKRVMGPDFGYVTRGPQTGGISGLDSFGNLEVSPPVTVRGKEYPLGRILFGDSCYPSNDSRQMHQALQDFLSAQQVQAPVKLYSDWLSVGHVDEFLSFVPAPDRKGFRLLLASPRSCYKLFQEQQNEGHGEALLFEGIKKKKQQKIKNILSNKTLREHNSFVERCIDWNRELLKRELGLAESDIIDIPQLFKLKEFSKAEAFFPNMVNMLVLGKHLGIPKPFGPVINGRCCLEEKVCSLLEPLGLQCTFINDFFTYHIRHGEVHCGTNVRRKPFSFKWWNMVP
row,IC50 [nM],SMILES
1,33,"COc1cc(C(=O)N2C[C@H]3CC[C@@H]2[C@@H]3N)cc2nc(-c3cc4ccccc4n3CC3CC3)n(CC3CN(C(=O)c4cccc(F)c4)C3)c12 [Example 169, (1R,4R,7R)-2-{2-[1-(cyclopropylmethyl)-1H-indol-2-yl]-1-{[1-(3-fluorobenzoyl)azetidin-3-yl]methyl}-7-methoxy-1H-1,3-benzodiazole-5-carbonyl}-2-azabicyclo[2.2.1]heptan-7-amine]"
2,75,"COc1cc(C(=O)N2C[C@H]3CC[C@@H]2[C@@H]3N)cc2nc(-c3cc4cccnc4n3C)n(C[C@H]3CCN(c4ccnc(C#N)n4)C3)c12 [Example 210, 4-[(3S)-3-({5-[(1R,4R,7R)-7-amino-2-azabicyclo[2.2.1]heptane-2-carbonyl]-7-methoxy-2-{1-methyl-1H-pyrrolo[2,3-b]pyridin-2-yl}-1H-1,3-benzodiazol-1-yl}methyl)pyrrolidin-1-yl]pyrimidine-2-carbonitrile]"
3,142,"COc1cc(C(=O)N2C[C@H](N)C[C@@H](F)C2)cc2nc(-c3cc4ccccc4n3CC3CC3)n(CC3CC(F)(F)C3)c12 [Example 477, (3R,5R)-1-{2-[1-(cyclopropylmethyl)-1H-indol-2-yl]-1-[(3,3-difluorocyclobutyl)methyl]-7-methoxy-1H-1,3-benzodiazole-5-carbonyl}-5-fluoropiperidin-3-amine]"
4,319,"COc1cc(C(=O)N2C[C@H](N)C[C@@H](F)C2)cc2nc(-c3cc4ccccc4n3CC3CC3)n(Cc3ccnn3C)c12 [Example 277, (3R,5R)-1-{2-[1-(cyclopropylmethyl)-1H-indol-2-yl]-7-methoxy-1-[(1-methyl-1H-pyrazol-5-yl)methyl]-1H-1,3-benzodiazole-5-carbonyl}-5-fluoropiperidin-3-amine]"
5,51,"COc1cc(C(=O)N2C[C@H]3CC[C@@H]2[C@@H]3N)cc2nc(-c3cc4cccnc4n3CC3CC3)n(CC3CN(C(=O)c4ccc(C#N)cc4)C3)c12 [Example 112, 4-[3-({5-[(1R,4R,7R)-7-amino-2-azabicyclo[2.2.1]heptane-2-carbonyl]-2-[1-(cyclopropylmethyl)-1H-pyrrolo[2,3-b]pyridin-2-yl]-7-methoxy-1H-1,3-benzodiazol-1-yl}methyl)azetidine-1-carbonyl]benzonitrile]"
6,59,"COc1cc(C(=O)N2C[C@H]3CC[C@@H]2[C@@H]3N)cc2nc(-c3cc4cccnc4n3CC3CC3)n(CC3CN(C(=O)CC4CC4)C3)c12 [Example 115, 1-[3-({5-[(1R,4R,7R)-7-amino-2-azabicyclo[2.2.1]heptane-2-carbonyl]-2-[1-(cyclopropylmethyl)-1H-pyrrolo[2,3-b]pyridin-2-yl]-7-methoxy-1H-1,3-benzodiazol-1-yl}methyl)azetidin-1-yl]-2-cyclopropylethan-1-one]"
7,28,"COc1cc(C(=O)N2CC3CCC2[C@@H]3N)cc2nc(-c3cc4cccnc4n3CC3CC3)n(CC3CN(C(=O)c4ccccc4Cl)C3)c12 (stereo partly drawn) [Example 428, (7R)-2-(1-{[1-(2-chlorobenzoyl)azetidin-3-yl]methyl}-2-[1-(cyclopropylmethyl)-1H-pyrrolo[2,3-b]pyridin-2-yl]-7-methoxy-1H-1,3-benzodiazole-5-carbonyl)-2-azabicyclo[2.2.1]heptan-7-amine]"
8,1570,"COC(=O)N1CC(Cn2c(-c3cc4cccnc4n3CC3CC3)nc3cc(C(=O)N4CCC[C@@H](N)C4)cc(OC)c32)C1 [Example 192, methyl 3-({5-[(3R)-3-aminopiperidine-1-carbonyl]-2-[1-(cyclopropylmethyl)-1H-pyrrolo[2,3-b]pyridin-2-yl]-7-methoxy-1H-1,3-benzodiazol-1-yl}methyl)azetidine-1-carboxylate]"
9,29,"COc1cccc(-n2cc(Cn3c(-c4cc5cccnc5n4CC4CC4)nc4cc(C(=O)N5C[C@H](N)C[C@@H](F)C5)cc(OC)c43)cn2)n1 [Example 369, (3R,5R)-1-{2-[1-(cyclopropylmethyl)-1H-pyrrolo[2,3-b]pyridin-2-yl]-7-methoxy-1-{[1-(6-methoxypyridin-2-yl)-1H-pyrazol-4-yl]methyl}-1H-1,3-benzodiazole-5-carbonyl}-5-fluoropiperidin-3-amine]"
10,1900,"COc1cc(C(=O)N2CCC[C@@H](N)C2)cc2nc(-c3cc4cccnc4n3CC3CC3)n(C3CNC3)c12 [Example 310, (3R)-1-[1-(azetidin-3-yl)-2-[1-(cyclopropylmethvl)-1H-pyrrolo[2,3-b]pyridin-2-yl]-7-methoxy-1H-1,3-benzodiazole-5-carbonyl]piperidin-3-amine]"
11,37,"COc1cc(C(=O)N2CC3CCC2[C@@H]3N)cc2nc(-c3cc4cccnc4n3CC3CC3)n(Cc3cnn(-c4ccc[n+]([O-])c4)c3)c12 (stereo partly drawn) [Example 377, 3-[4-({5-[(7R)-7-amino-2-azabicyclo[2.2.1]heptane-2-carbonyl]-2-[1-(cyclopropylmethyl)-1H-pyrrolo[2,3-b]pyridin-2-yl]-7-methoxy-1H-1,3-benzodiazol-1-yl}methyl)-1H-pyrazol-1-yl]pyridin-1-ium-1-olate]"
12,41,"COc1cc(C(=O)N2CC3CCC2[C@@H]3N)cc2nc(-c3cc4ccccc4n3CC3CC3)n(CC3CN(C(=O)c4ccc(C#N)nc4)C3)c12 (stereo partly drawn) [Example 415, 5-[3-({5-[(7R)-7-amino-2-azabicyclo[2.2.1]heptane-2-carbonyl]-2-{1-(cyclopropylmethyl)-1H-indol-2-yl]-7-methoxy-1H-1,3-benzodiazol-1-yl}methyl)azetidine-1-carbonyl]pyridine-2-carbonitrile]"
13,23,"COc1cc(C(=O)N2CC3CCC2[C@@H]3N)cc2nc(-c3cc4cccnc4n3CC3CC3)n(CC3CN(C(=O)c4cccc(F)c4F)C3)c12 (stereo partly drawn) [Example 423, (7R)-2-{2-[1-(cyclopropylmethyl)-1H-pyrrolo[2,3-b]pyridin-2-yl]-1-{[1-(2,3-difluorobenzoyl)azetidin-3-yl]methyl}-7-methoxy-1H-1,3-benzodiazole-5-carbonyl}-2-azabicyclo[2.2.1]heptan-7-amine]"
14,23,"COc1cc(C(=O)N2CC3CCC2[C@@H]3N)cc2nc(-c3cc4cccnc4n3CC3CC3)n(Cc3cnn(-c4cccc(C(F)(F)F)n4)c3)c12 (stereo partly drawn) [Example 356, (7R)-2-{2-[1-(cyclopropylmethyl)-1H-pyrrolo[2,3-b]pyridin-2-yl]-7-methoxy-1-({1-[6-(trifluoromethyl)pyridin-2-yl]-1H-pyrazol-4-yl}methyl)-1H-1,3-benzodiazole-5-carbonyl)-2-azabicyclo[2.2.1]heptan-7-amine]"
15,23,"COc1cc(C(=O)N2CC3CCC2[C@@H]3N)cc2nc(-c3cc4ccccc4n3CC3CC3)n(Cc3cnn(-c4cncc(F)c4)c3)c12 (stereo partly drawn) [Example 359, (7R)-2-{2-[1-(cyclopropylmethyl)-1H-indol-2-yl]-1-{[1-(5-fluoropyridin-3-yl)-1H-pyrazol-4-yl]methyl}-7-methoxy-1H-1,3-benzodiazole-5-carbonyl}-2-azabicyclo[2.2.1]heptan-7-amine]"
16,92,"COc1cc(C(=O)N2C[C@H]3CC[C@@H]2[C@@H]3N)cc2nc(-c3cc4cccnc4n3CC3CC3)n(CC3CN(c4cccnc4C#N)C3)c12 [Example 36, 3-[3-({5-[(1R,4R,7R)-7-amino-2-azabicyclo[2.2.1]heptane-2-carbonyl]-2-[1-(cyclopropylmethyl)-1H-pyrrolo[2,3-b]pyridin-2-yl]-7-methoxy-1H-1,3-benzodiazol-1-yl}methyl)azetidin-1-yl]pyridine-2-carbonitrile]"
